Patent US6391301B1, “Agent for identifying and treating metastasizing tumors” (Forschungszentrum Karlsruhe GmbH, priority 1998, dated 2002)

Test system: M-N#1 antibody binding to proteins in lysates from MT-450 cells
Assay: Competition of M-N#1 binding with fucose and galactose (immunoprecipitation)
Design: species or system rat
Conditions: increasing amounts of sugar, lysates from radiolabelled MT-450 cells
Description: Immunoprecipitation: cells were labeled by incubation with (^35S)L-methionine ([…]) in methionine-free RPMI medium supplemented with dialyzed FCS for 4 h. For a pulse-chase analysis, cells were incubated with (^35S)L-methionine ([…]) in methionine-free RPMI medium supplemented with dialyzed FCS for 15 minutes, then washed and incubated further with methionine-containing medium. For immunoprecipitations, cells were lyzed in RIPA (radioimmunoprecipitation) buffer, and aliquots were immunoprecipitated with 5 μg of antibodies. To purify proteins which bind to Ulex europaeus lectin, the cells were lyzed with PBS/1% NP40/1 mM PMSF and centrifuged, and the lysates were incubated with Ulex europaeus lectin beads at 4° C. for one hour. The beads were then washed three times with PBS, and the excess buffer was removed. The beads were boiled in 1% SDS/20 mM phosphate at pH 7.0. A 20-fold excess of RIPA buffer was then added, and the supernatant was used for the immunoprecipitation after removal of the Ulex europaeus lectin beads. In experiments in which immunoprecipitated proteins were treated with 0.5 U of N-glycosidase F, 2.5 mU of O-glycosidase or 5 mU of neuraminidase, the antigen-antibody matrix bead complex was initially washed in 100 mM phosphate buffer, pH 7.0. Buffer was removed and then the matrix beads were boiled in 5 μl of 1% SDS/20 mM phosphate, pH 7.0, for 5 minutes. The enzymes were then added in 45 μl of 20 mM phosphate buffer (pH 7.0)/1 mM CaSO4. The efficiency of the enzyme reaction was confirmed by comparison with similar digestive processes on immunoprecipitated CD44v4-v7 protein, which is digested by each of said enzymes. Immunoprecipitated proteins were removed by SDS (sodium dodecyl sulfate) PAGE (polyacrylamide gel electrophoresis). Gels were treated with PPO (2,5-diphenyloxazole) and exposed to X-ray sensitive film material.
Competition of M-N#1 binding with fucose and galactose. […]

SMILES	Effect on protein binding to M-N#1 antibody
C[C@@H](O)[C@H](O)[C@H](O)[C@@H](O)C=O [D-fucose]	inhibited
O=C[C@H](O)[C@@H](O)[C@@H](O)[C@H](O)CO [D-galactose]	inhibited
C[C@H](O)[C@@H](O)[C@@H](O)[C@H](O)C=O [L-Fucose]	no effect
